Data taken from patent publication US20250339531A1, “DUX4 POLYPEPTIDES AND NUCLEIC ACIDS FOR TREATING INFLAMMATORY AND AUTOIMMUNE CONDITIONS” (Fred Hutchinson Cancer Center, priority 2021, published 2025).

Legend:
[1] = tested on: translational efficiency (TE); test: Ribosome footprinting (Ribo-seq) paired with RNA-seq; format: cell-based, human; conditions: DUX4 pulse+IFNG versus IFNG, 68 hours
Experimental: Ribo-seq was performed as described previously (Calviello et al., 2016) using two 70% confluent 15 cm plates of MB135iDUX4 myoblasts per treatment condition (n=3). MB135iDUX4 myoblasts were pulsed with or without doxycycline for 4 hours, incubated for 48 hours, supplemented with or without 50 ng/mL IFNG for 16 hours, and harvested at a terminal time point of 68 hours. To harvest, media was aspirated and each 15 cm plate of adherent cells was rinsed with 25 mL ice-cold PBS supplemented with 100 μg/mL cycloheximide (Sigma). After thorough removal of the PBS, plates were immersed in liquid nitrogen and placed on dry ice. Cells were lysed in mammalian polysome lysis buffer (20 mM Tris-HCl, pH 7.4, 150 mM NaCl, 5 mM MgCl2, 1 mM DTT, 100 μg/mL cycloheximide added fresh) supplemented with 1% Triton X-100 and 25 U/ml Turbo DNase (Ambion), transferred to wet ice, harvested by scraping and further lysed by trituration ten times through a 26-gauge needle. Lysates were cleared by centrifugation at 20,000×g for 10 min at 4° C., flash frozen in liquid nitrogen, and stored at −80° C. To isolate ribosome-protected RNA fragments, lysates were thawed, digested with 2.5 U/μL RNase I (Ambion) for 45 minutes at room temperature with gentle mixing, and treated with 0.65 U/μL SUPERaseIn RNase Inhibitor (Thermo Fisher Scientific) to stop nuclease activity. Ribosome complexes were isolated using MicroSpin S-400 HR Columns (GE Healthcare) and RNA extracted using the Direct-zol RNA Miniprep Kit (Zymo Research). The rRNA Removal Mix—Gold component of Illumina's TruSeq Stranded Total RNA Library Prep Gold kit was used to deplete rRNAs. Samples were precipitated using GlycoBlue Coprecipitant (Ambion) as carrier, 0.1 volume 3M sodium acetate and 3 volumes 100% Ethanol, incubated at −80° C. overnight, centrifuged for 45 minutes at 20,000×g at 4° C., and RNA pellet dissolved in nuclease-free ultrapure water. Ribosome-protected fragments were isolated by running samples on a 15% TBE-Urea gel with 10 bp DNA Ladder (Promega) and Marker-27nt and Marker-30nt (data not shown). […]

STAT1 = target: T1, STAT1 (Homo sapiens, UniProt P42224); test: Immunofluorescence of STAT1 distribution; format: cell-based; conditions: MB135 cells, IFNG ± doxycycline
T1 construct: co-localization of endogenous STAT1 and pSTAT1 701 with the iDUX4-CTD; endogenous in cells; host or cells: MB135 human myoblasts carrying doxycycline-inducible DUX4 / DUX4-CTD / DUXB / Dux transgenes, with or without IFNG
T1 sequence (P42224 1-750): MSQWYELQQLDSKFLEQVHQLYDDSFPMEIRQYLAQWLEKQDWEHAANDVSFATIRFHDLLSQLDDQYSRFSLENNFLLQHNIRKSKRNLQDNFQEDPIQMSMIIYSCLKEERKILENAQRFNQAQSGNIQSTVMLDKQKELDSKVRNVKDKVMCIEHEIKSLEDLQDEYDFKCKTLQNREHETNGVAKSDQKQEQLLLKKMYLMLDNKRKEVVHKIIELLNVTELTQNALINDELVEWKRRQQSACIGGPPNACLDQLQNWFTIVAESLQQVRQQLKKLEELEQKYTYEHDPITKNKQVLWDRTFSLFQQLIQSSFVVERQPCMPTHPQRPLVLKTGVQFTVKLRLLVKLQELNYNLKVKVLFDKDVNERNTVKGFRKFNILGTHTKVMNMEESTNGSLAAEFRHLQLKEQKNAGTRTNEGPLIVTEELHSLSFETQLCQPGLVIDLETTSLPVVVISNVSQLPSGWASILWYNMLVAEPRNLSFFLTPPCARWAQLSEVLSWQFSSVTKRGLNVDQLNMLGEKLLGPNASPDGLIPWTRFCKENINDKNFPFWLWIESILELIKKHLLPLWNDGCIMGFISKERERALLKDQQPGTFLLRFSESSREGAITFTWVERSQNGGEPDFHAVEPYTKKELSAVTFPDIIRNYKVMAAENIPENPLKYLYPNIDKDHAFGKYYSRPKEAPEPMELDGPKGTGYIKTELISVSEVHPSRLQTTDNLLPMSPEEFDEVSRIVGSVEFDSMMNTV
Experimental: Cells were fixed for 10 minutes with 2% paraformaldehyde (Thermo Scientific) for DUX4/STAT1 and 4% paraformaldehyde for DUX4/IDO1 then permeabilized for 10 minutes with 0.5% Triton X-100 (Sigma), both at room temperature with gentle shaking. Cells were then blocked for 2 hours with PBS/0.3M glycine/3% BSA at room temperature with gentle shaking. Primary antibodies were incubated at 4° C. overnight: mouse anti-FLAG M2 1:500 (Sigma #F1804), rabbit anti-STAT1 mAb 1:750 (Abcam #ab109320), rabbit anti-IDO1 (D5J4E) 1:100 (Cell Signaling Tech 86630S), and mouse anti-DUX4 (P2G4) 1:250 (Geng et al., 2011). Cells were washed three times with 1×PBS containing 3% BSA, then secondary antibodies were incubated for 1 hr at room temperature: FITC-conjugated donkey anti-rabbit (Jackson immunoResearch) or TRITC-conjugated donkey anti-mouse (Jackson ImmunoResearch). Cells were washed once with 1×PBS containing 3% BSA then stained with DAPI (Sigma) for 10′ at room temperature and then visualized.

## DUX4: human DUX4 protein SEQ ID NO:3 expressed from doxycycline inducible codon altered transgene SEQ ID NO:2
[1]
  transcripts with significantly reduced TE at the 5′UTR: 26.7%
  transcripts with significantly reduced TE at the TSS: 13.9%
  transcripts with significantly reduced TE within the first exon: 4.3%
STAT1
  STAT1 nuclear distribution: no longer evenly distributed in the nucleus and shows overall decreased abundance
